Measured values from ChEMBL document CHEMBL5042497, “Design, synthesis, and biological evaluation of carbamate derivatives of N-salicyloyl tryptamine as multifunctional agents for the treatment of Alzheimer's disease” (Eur J Med Chem, 2022).
The source made the active and inactive calls. The rule behind the calls is not given here.

Tests used:
BV-2 [1] = test: cells; type: functional, cell-based; details: Mus musculus, BV-2, 24 h
Description: Cytotoxicity against mouse BV-2 cells assessed as reduction in cell viability measured after 24 hrs by MTT assay

Cholinesterase [2] = target: Cholinesterase (Equus caballus, UniProt P81908); test: Inhibition of equine serum BChE using butyrylthiocholine iodide as substrate preincubated for 10 mins followed by substrate addition and measured after 15 mins by Ellman's method
Chain of Cholinesterase (Equus caballus, UniProt P81908) (P81908 whole entry): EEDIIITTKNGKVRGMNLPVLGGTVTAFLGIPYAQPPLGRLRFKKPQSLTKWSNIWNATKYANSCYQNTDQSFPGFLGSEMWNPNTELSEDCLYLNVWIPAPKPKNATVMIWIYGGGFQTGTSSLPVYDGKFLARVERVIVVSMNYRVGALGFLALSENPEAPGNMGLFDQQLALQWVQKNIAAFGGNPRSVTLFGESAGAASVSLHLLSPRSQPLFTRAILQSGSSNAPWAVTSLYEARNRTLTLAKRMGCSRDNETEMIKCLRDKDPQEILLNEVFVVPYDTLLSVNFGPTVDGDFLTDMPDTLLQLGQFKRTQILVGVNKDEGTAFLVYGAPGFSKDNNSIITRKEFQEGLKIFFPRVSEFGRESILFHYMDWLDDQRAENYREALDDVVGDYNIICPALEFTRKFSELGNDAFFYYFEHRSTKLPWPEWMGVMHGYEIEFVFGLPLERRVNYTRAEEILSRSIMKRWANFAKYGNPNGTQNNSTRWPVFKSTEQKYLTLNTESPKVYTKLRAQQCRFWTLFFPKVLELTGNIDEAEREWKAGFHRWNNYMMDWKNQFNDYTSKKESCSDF

HT-22 = test: cells; type: functional, cell-based; details: Mus musculus, HT-22, 24 h
Description: Cytotoxicity against mouse HT-22 cells assessed as reduction in cell viability measured after 24 hrs by MTT assay

Acetylcholinesterase [3] = target: Acetylcholinesterase (Electrophorus electricus, UniProt O42275); test: Inhibition of electric eel AChE using acetylthiocholine iodide as substrate preincubated for 10 mins followed by substrate addition and measured for 15 mins by Ellman's method
Chain of Acetylcholinesterase (Electrophorus electricus, UniProt O42275) (O42275 whole entry): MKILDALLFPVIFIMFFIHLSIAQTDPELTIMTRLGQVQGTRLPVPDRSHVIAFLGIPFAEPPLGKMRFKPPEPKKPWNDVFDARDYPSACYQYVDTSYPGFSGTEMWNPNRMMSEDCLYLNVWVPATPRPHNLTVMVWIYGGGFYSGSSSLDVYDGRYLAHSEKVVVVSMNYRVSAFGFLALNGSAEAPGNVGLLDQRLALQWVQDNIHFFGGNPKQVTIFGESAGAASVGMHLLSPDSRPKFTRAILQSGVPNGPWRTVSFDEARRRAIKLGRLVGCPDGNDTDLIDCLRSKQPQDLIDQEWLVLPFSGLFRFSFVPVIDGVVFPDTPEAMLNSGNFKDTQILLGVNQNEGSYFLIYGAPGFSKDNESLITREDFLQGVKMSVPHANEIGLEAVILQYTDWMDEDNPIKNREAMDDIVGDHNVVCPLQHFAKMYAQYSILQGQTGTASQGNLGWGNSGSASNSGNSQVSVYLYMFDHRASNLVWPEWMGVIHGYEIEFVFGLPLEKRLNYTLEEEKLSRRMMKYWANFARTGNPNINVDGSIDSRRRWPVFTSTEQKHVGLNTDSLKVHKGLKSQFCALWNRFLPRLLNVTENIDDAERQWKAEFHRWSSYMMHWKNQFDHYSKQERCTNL

BV-2 [4] = test: Anti-neuroinflammation in mouse BV-2 cells assessed as decrease in LPS-induced iNOS activity at 1.25 umol/L by fluorescence based assay; type: functional, cell-based; details: dose 1.25 µmol/L
Mus musculus [5] = test: Anti-alzheimer activity against scopolamine-induced cognitive dysfunction mouse model assessed as change in neuron damage in hippocampal CA3 region at 5 mg/kg, po measured after 10 days by Nissl staining based assay; type: functional, organism-based; details: time 10.0 day
Mus musculus [6] = test: Anti-alzheimer activity against scopolamine-induced cognitive dysfunction mouse model assessed as […] of AChE activity in hippocampus at 5 mg/kg, po measured after 10 days by colorimetric analysis; type: functional, organism-based; details: time 10.0 day
Mus musculus [7] = test: Anti-alzheimer activity against scopolamine-induced cognitive dysfunction mouse model assessed as change in neuron damage in hippocampal CA1 region at 5 mg/kg, po measured after 10 days by Nissl staining based assay; type: functional, organism-based; details: time 10.0 day
BV-2 [8] = test: Anti-neuroinflammation in mouse BV-2 cells assessed as decrease in LPS-induced IL-6 production at 1.25 umol/L measured after 24 hrs by ELISA; type: functional, cell-based; details: dose 1.25 µmol/L
BV-2 [9] = test: Anti-neuroinflammation in mouse BV-2 cells assessed as decrease in LPS-induced TNF-alpha production at 1.25 umol/L measured after 24 hrs by ELISA; type: functional, cell-based; details: dose 1.25 µmol/L
Acetylcholinesterase [10] = target: Acetylcholinesterase (Homo sapiens, UniProt P22303); test: Inhibition of AChE (unknown origin)
Chain of Acetylcholinesterase (Homo sapiens, UniProt P22303) (P22303 whole entry): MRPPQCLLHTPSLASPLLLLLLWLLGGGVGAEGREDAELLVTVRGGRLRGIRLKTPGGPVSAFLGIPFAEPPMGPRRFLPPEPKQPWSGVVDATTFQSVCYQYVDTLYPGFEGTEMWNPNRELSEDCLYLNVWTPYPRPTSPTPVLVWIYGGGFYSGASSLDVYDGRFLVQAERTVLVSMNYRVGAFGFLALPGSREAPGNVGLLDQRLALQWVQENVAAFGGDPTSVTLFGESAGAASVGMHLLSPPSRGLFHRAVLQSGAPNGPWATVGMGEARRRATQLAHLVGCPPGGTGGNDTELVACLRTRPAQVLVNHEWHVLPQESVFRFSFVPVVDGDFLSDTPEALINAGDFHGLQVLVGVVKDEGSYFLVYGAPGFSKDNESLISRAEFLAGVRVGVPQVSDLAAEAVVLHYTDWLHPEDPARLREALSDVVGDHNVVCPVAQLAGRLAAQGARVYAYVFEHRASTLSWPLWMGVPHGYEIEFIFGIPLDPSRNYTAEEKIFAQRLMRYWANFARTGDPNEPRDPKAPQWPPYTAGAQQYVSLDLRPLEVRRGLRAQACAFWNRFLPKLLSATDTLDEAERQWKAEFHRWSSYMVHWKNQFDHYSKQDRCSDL

[11] = target: Amyloid-beta precursor protein (Homo sapiens) (UniProt P05067); test: Inhibition of amyloid beta (1 to 42 ) (unknown origin) aggregation at 20 umol/L incubated for 24 hrs by thioflavin-T fluorescence method relative to control; details: dose 20.0 µmol/L
Chain of Amyloid-beta precursor protein (Homo sapiens) (P05067 whole entry): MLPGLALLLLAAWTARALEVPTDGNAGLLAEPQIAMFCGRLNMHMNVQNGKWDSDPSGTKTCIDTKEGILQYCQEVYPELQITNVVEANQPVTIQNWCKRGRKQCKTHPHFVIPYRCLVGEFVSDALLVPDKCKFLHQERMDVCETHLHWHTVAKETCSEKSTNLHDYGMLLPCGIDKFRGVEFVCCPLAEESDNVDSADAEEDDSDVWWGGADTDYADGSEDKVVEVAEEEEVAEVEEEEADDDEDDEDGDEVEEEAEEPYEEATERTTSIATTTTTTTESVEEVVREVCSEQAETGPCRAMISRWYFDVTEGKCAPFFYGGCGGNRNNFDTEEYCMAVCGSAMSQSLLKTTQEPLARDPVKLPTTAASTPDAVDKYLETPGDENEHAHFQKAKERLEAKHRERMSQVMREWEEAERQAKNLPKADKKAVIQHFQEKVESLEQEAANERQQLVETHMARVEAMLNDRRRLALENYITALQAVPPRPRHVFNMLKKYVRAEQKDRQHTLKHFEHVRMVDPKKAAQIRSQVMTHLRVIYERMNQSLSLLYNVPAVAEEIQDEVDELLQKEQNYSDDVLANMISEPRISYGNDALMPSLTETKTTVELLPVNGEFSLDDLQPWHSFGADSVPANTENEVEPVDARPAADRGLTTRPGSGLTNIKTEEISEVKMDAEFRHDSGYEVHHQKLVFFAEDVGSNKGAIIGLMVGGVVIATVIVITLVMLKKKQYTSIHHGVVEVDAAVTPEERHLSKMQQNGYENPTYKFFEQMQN

Cholinesterase [12] = target: Cholinesterase (Homo sapiens, UniProt P06276); test: Inhibition of BuChE (unknown origin)
Chain of Cholinesterase (Homo sapiens, UniProt P06276) (P06276 whole entry): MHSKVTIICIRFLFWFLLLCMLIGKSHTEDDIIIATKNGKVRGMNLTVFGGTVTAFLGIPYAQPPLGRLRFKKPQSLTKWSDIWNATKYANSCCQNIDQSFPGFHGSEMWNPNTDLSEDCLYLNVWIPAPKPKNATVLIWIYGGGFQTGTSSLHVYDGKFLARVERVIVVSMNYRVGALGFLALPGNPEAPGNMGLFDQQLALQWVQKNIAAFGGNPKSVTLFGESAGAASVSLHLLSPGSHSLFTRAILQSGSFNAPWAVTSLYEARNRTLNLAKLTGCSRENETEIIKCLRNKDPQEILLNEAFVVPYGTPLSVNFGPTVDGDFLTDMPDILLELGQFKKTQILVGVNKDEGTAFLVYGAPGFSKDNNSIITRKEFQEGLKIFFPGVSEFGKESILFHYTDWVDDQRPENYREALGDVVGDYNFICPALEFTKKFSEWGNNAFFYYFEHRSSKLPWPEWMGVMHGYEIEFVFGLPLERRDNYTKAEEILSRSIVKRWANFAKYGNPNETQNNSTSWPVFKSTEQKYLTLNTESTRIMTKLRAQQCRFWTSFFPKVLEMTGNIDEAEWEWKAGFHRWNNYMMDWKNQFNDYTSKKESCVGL

Mus musculus [13] = test: Anti-alzheimer activity against scopolamine-induced cognitive dysfunction mouse model assessed as […] of AChE activity in hippocampus at 50 to 100 mg/kg, po dosed for 10 days by colorimetric analysis; type: functional, organism-based; details: dose 50-100 mg/kg, time 10.0 day
BV-2 [14] = test: Anti-neuroinflammation in mouse BV-2 cells assessed as decrease in LPS-induced TNF-alpha production at 12.5 umol/L measured after 24 hrs by ELISA; type: functional, cell-based; details: dose 12.5 µmol/L
BV-2 [15] = test: Anti-neuroinflammation in mouse BV-2 cells assessed as decrease in LPS-induced IL-6 production at 12.5 umol/L measured after 24 hrs by ELISA; type: functional, cell-based; details: dose 12.5 µmol/L
Mus musculus [16] = test: Anti-alzheimer activity against scopolamine-induced cognitive dysfunction mouse model assessed as change in neuron damage in hippocampal CA1 region at 50 to 100 mg/kg, po measured after 10 days by Nissl staining based assay; type: functional, organism-based; details: Hippocampus, dose 50-100 mg/kg, time 10.0 day
BV-2 [17] = test: Anti-neuroinflammation in mouse BV-2 cells assessed as decrease in LPS-induced iNOS activity at 12.5 umol/L by fluorescence based assay; type: functional, cell-based; details: dose 12.5 µmol/L
BV-2 [18] = test: Anti-neuroinflammation in mouse BV-2 cells assessed as inhibition of LPS-induced NO production at 100 to 3.125 umol/L measured after 24 hrs by Griess method; type: functional, cell-based; details: dose 100-3.125 µmol/L
Mus musculus [19] = test: Anti-alzheimer activity against scopolamine-induced cognitive dysfunction mouse model assessed as change in neuron damage in hippocampal CA3 region at 50 to 100 mg/kg, po measured after 10 days by Nissl staining based assay; type: functional, organism-based; details: Hippocampus, dose 50-100 mg/kg, time 10.0 day

| SMILES | IC50 (BV-2 [1]) | IC50 (Cholinesterase [2]) | IC50 (HT-22) | IC50 (Acetylcholinesterase [3]) | other results |
| --- | --- | --- | --- | --- | --- |
| CON(C)C(=O)Oc1ccc(C(=O)NCCc2c[nH]c3ccccc23)cc1 | 30.3 µM | 6.61 µM | > 100 µM | 3.11 µM | – |
| O=C(NCCc1c[nH]c2ccccc12)c1ccccc1OC(=O)N(Cc1ccccc1)Cc1ccccc1 | 137 µM | 15.4 µM | > 100 µM | > 100 µM | – |
| COc1cc2c(cc1OC)C(=O)C(CC1CCN(Cc3ccccc3)CC1)C2 (stereo unspecified) [DONEPEZIL] | 1.54 µM | – | 56.4 µM | – | Activity (BV-2 [4]): Active; Activity (Mus musculus [5]): Active; Activity (Mus musculus [6]): Active; Activity (Mus musculus [7]): Active; Activity (BV-2 [8]): Active; Activity (BV-2 [9]): Active |
| O=C(NCCc1c[nH]c2ccccc12)c1ccccc1OC(=O)N(c1ccccc1)c1ccccc1 | 126 µM | 4.73 µM | > 100 µM | > 100 µM | – |
| CN1CC[C@@]2(C)c3cc(OC(=O)Nc4ccccc4)ccc3N(C)[C@@H]12 [PHENSERINE] | – | – | – | – | IC50 (Acetylcholinesterase [10]): 1.56 µM |
| CN1CCN(C(=O)Oc2ccccc2C(=O)NCCc2c[nH]c3ccccc23)CC1 | 49.7 µM | 5.14 µM | 92.7 µM | 66 µM | – |
| O=C(NCCc1c[nH]c2ccccc12)c1ccccc1OC(=O)N1CCCCC1 | 32.8 µM | > 100 µM | 24.4 µM | > 100 µM | – |
| CCCN(CCC)C(=O)Oc1ccccc1C(=O)NCCc1c[nH]c2ccccc12 | 0.33 µM | 35.8 µM | 25.4 µM | 37.2 µM | – |
| O=S1(=O)OC(c2ccc(O)cc2)(c2ccc(O)cc2)c2ccccc21 | – | – | – | – | inhibition [11]: 34.8% |
| CC(C)c1ccc(NC(=O)Oc2ccc3c(c2)[C@]2(C)CCOC2O3)cc1 (stereo partly specified) | – | – | – | – | IC50 (Cholinesterase [12]): 0.027 µM |
| O=C(NCCc1c[nH]c2ccccc12)c1ccccc1OC(=O)N1CCCCCC1 | 32.7 µM | 24.1 µM | 25.1 µM | > 100 µM | – |
| CNC(=O)Oc1ccc2c(c1)[C@]1(C)CCOC1N2C (stereo partly specified) | – | – | – | – | IC50 (Acetylcholinesterase [10]): 0.004 µM |
| CCCCN(CCCC)C(=O)Oc1ccccc1C(=O)NCCc1c[nH]c2ccccc12 | 116 µM | 8.01 µM | 12.8 µM | 34.9 µM | – |
| O=C(NCCc1c[nH]c2ccccc12)c1ccccc1OC(=O)N1CCSCC1 | 1.53 µM | 1.44 µM | > 100 µM | > 100 µM | – |
| CN1c2ccc(OC(=O)NCC3CCCCC3)cc2[C@]2(C)CCN(CCc3ccccc3)[C@H]12 | – | – | – | – | IC50 (Acetylcholinesterase [10]): 0.0018 µM; IC50 (Cholinesterase [12]): 0.0018 µM |
| CCNC(=O)Oc1ccc2c(c1)[C@]1(C)CCOC1O2 (stereo partly specified) | – | – | – | – | IC50 (Acetylcholinesterase [10]): 0.006 µM; IC50 (Cholinesterase [12]): 0.006 µM |
| O=C(NCCc1c[nH]c2ccccc12)c1ccccc1OC(=O)N1CCCC1 | 56 µM | 1.2 µM | 64.3 µM | > 100 µM | – |
| O=C(NCCc1c[nH]c2ccccc12)c1ccccc1O | 26.8 µM | 15.9 µM | 101 µM | 23.2 µM | Activity (Mus musculus [13]): Active; inhibition [11]: 19.6%; Activity (BV-2 [14]): Active; Activity (BV-2 [15]): Active; Activity (Mus musculus [16]): Active; Activity (BV-2 [17]): Active; Activity (BV-2 [18]): Active; Activity (Mus musculus [19]): Active |
| O=C(NCCc1c[nH]c2ccccc12)c1ccccc1OC(=O)N1CCOCC1 | 82.8 µM | 10 µM | 97.7 µM | > 100 µM | – |
| CON(C)C(=O)Oc1cccc(C(=O)NCCc2c[nH]c3ccccc23)c1 | 12.4 µM | 1.27 µM | 48.3 µM | > 100 µM | – |
| CN(C(=O)Oc1ccccc1C(=O)NCCc1c[nH]c2ccccc12)c1ccccc1 | 20.6 µM | 29.7 µM | 48.5 µM | > 100 µM | – |
| CN(C)C(=O)Oc1ccccc1C(=O)NCCc1c[nH]c2ccccc12 | 35.2 µM | 3.95 µM | 75.4 µM | 16.7 µM | – |
| O=C(NCCc1c[nH]c2ccccc12)c1ccccc1OC(=O)N1CCC1 | 33.3 µM | 17 µM | 40.1 µM | > 100 µM | – |
| CCN(CC)C(=O)Oc1ccccc1C(=O)NCCc1c[nH]c2ccccc12 | 32.1 µM | 14 µM | 57.2 µM | 68.5 µM | – |
| O=C(NCCc1c[nH]c2ccccc12)c1ccccc1OC(=O)N1CCc2ccccc21 | 137 µM | 30 µM | > 100 µM | > 100 µM | – |
